Data taken from patent US20250147039A1, “Compounds for complexation of rare earth elements and/or s-, p-, d- block metals, their coordination compounds, peptide conjugates, method of their preparation and use thereof” (USTAV ORGANICKE CHEMIE A BIOCHEMIE AV CR V.V.I., priority 2021, published 2025).

What was measured:
[1] = pH dependent formation of 1,5- and 1,4-cz-Lig isomers from Lig (pH dependent click-zip) (Chart 13); assay type: physicochemical; settings: B: 1 day at 80° C.
[2] = Alkali metal dependent formation of 1,5-cz-Lig and 1,4-cz-Lig isomers from Lig at pH 10.2 (Chart 14); assay type: physicochemical; settings: Borate/(M^I)2CO3 buffer pH 10.2
[3] = Formation of 1,5-cz-[Ln(Lig)] from Lig and Ln^III ions (metal dependent click-zip), MOPS/NaOH buffer pH 7.0, analytical HPLC (Charts 1, 2); settings: MOPS/NaOH buffer pH 7.0
[4] = B: 1 day at 80° C., visible analyte free precipitate

## C#Cc1cccc(CN2CCN(CC(=O)O)CCN(Cc3cc(-c4ccccc4)cc(CN=[N+]=[N-])n3)CCN(CC(=O)O)CC2)n1 [TD647]
[1]; pH 2.2, 50 mM aq. buffer
  conversion to 1,4-cz-Lig isomer: 6%
  conversion to 1,5-cz-Lig isomer: 88%
[1]; pH 3.0, 50 mM aq. buffer
  conversion to 1,4-cz-Lig isomer: 6%
  conversion to 1,5-cz-Lig isomer: 69%
[1]; pH 3.8, 50 mM aq. buffer
  conversion to 1,4-cz-Lig isomer: 6%
  conversion to 1,5-cz-Lig isomer: 22%
[1]; pH 4.6, 50 mM aq. buffer
  conversion to 1,4-cz-Lig isomer: 5%
  conversion to 1,5-cz-Lig isomer: 13%
[1]; pH 5.4, 50 mM aq. buffer
  conversion to 1,4-cz-Lig isomer: 6%
  conversion to 1,5-cz-Lig isomer: 12%
[1]; pH 6.2, 50 mM aq. buffer
  conversion to 1,4-cz-Lig isomer: 12%
  conversion to 1,5-cz-Lig isomer: 11%
[1]; pH 7.0, 50 mM aq. buffer
  conversion to 1,4-cz-Lig isomer: 23%
  conversion to 1,5-cz-Lig isomer: 19%
[1]; pH 8.6, 50 mM aq. buffer
  conversion to 1,4-cz-Lig isomer: 32%
  conversion to 1,5-cz-Lig isomer: 26%
[1]; pH 9.4, 50 mM aq. buffer
  conversion to 1,4-cz-Lig isomer: 17%
  conversion to 1,5-cz-Lig isomer: 60%
[1]; pH 10.2, 50 mM aq. buffer
  conversion to 1,4-cz-Lig isomer: 5%
  conversion to 1,5-cz-Lig isomer: 80%
[2]; A: 1 hour at 80° C.
  conversion to 1,4-cz-Lig isomer, Cs^I: 2%
  conversion to 1,4-cz-Lig isomer, K^I: 2%
  conversion to 1,4-cz-Lig isomer, Li^I: 0%
  conversion to 1,4-cz-Lig isomer, Na^I: 1%
  conversion to 1,4-cz-Lig isomer, Rb^I: 2%
  conversion to 1,5-cz-Lig isomer, Cs^I: 0%
  conversion to 1,5-cz-Lig isomer, K^I: 1%
  conversion to 1,5-cz-Lig isomer, Li^I: 0%
  conversion to 1,5-cz-Lig isomer, Na^I: 15%
  conversion to 1,5-cz-Lig isomer, Rb^I: 0%
[2]; B: 1 day at 80° C.
  conversion to 1,4-cz-Lig isomer, Cs^I: 39%
  conversion to 1,4-cz-Lig isomer, K^I: 40%
  conversion to 1,4-cz-Lig isomer, Na^I: 1%
  conversion to 1,4-cz-Lig isomer, Rb^I: 41%
  conversion to 1,5-cz-Lig isomer, Cs^I: 7%
  conversion to 1,5-cz-Lig isomer, K^I: 10%
  conversion to 1,5-cz-Lig isomer, Na^I: 85%
  conversion to 1,5-cz-Lig isomer, Rb^I: 6%
[2]; [4]
  conversion to 1,4-cz-Lig isomer, Li^I: 2%
  conversion to 1,5-cz-Lig isomer, Li^I: 9%
[3]; after 1 week at 80° C.
  conversion to 1,5-cz-[Ln(Lig)], Ce^III: 50%
  conversion to 1,5-cz-[Ln(Lig)], Dy^III: 92%
  conversion to 1,5-cz-[Ln(Lig)], Er^III: 95%
  conversion to 1,5-cz-[Ln(Lig)], Eu^III: 89%
  conversion to 1,5-cz-[Ln(Lig)], Gd^III: 92%
  conversion to 1,5-cz-[Ln(Lig)], Ho^III: 95%
  conversion to 1,5-cz-[Ln(Lig)], La^III: 49%
  conversion to 1,5-cz-[Ln(Lig)], Lu^III: 96%
  conversion to 1,5-cz-[Ln(Lig)], Nd^III: 79%
  conversion to 1,5-cz-[Ln(Lig)], Pr^III: 69%
  conversion to 1,5-cz-[Ln(Lig)], Sm^III: 86%
  conversion to 1,5-cz-[Ln(Lig)], Tb^III: 91%
  conversion to 1,5-cz-[Ln(Lig)], Tm^III: 96%
  conversion to 1,5-cz-[Ln(Lig)], Yb^III: 96%
[3]; after 1 hour at 80° C.
  conversion to 1,5-cz-[Ln(Lig)], Ce^III: 1%
  conversion to 1,5-cz-[Ln(Lig)], Dy^III: 13%
  conversion to 1,5-cz-[Ln(Lig)], Er^III: 32%
  conversion to 1,5-cz-[Ln(Lig)], Eu^III: 4%
  conversion to 1,5-cz-[Ln(Lig)], Gd^III: 5%
  conversion to 1,5-cz-[Ln(Lig)], Ho^III: 21%
  conversion to 1,5-cz-[Ln(Lig)], La^III: 1%
  conversion to 1,5-cz-[Ln(Lig)], Lu^III: 64%
  conversion to 1,5-cz-[Ln(Lig)], Nd^III: 1%
  conversion to 1,5-cz-[Ln(Lig)], Pr^III: 1%
  conversion to 1,5-cz-[Ln(Lig)], Sm^III: 3%
  conversion to 1,5-cz-[Ln(Lig)], Tb^III: 9%
  conversion to 1,5-cz-[Ln(Lig)], Tm^III: 48%
  conversion to 1,5-cz-[Ln(Lig)], Yb^III: 61%
